In US5183893A, “1-azabicycloalkane derivatives, their preparation process and their use as medicaments” (Roussel Uclaf, priority 1988, dated 1993):
Where a name gives a salt, the structure may show the parent alone. Read-outs that look alike come from different tables or passages of the source.

Columns and labels:
[1] = Acute toxicity (mortality during 7 days, oral); details: mouse, in vivo, male CD1 mice, fasted 16 hours, mortality noted during 7 days
Procedure: The test is carried out on male mice (CD1 Charles Rivers) weighing 22 to 24 g, which have gone without food for 16 hours. The products are administered by oral route at a dose of 1000, 500, 250, 125, 62, 31 and 16 mg/kg. The mortality is noted during the 7 days following the treatment.

[2] = system: isolated ileum of a guinea-pig; test: Test on the isolated ileum of a guinea-pig (agonist activity); assay type: cell-based; details: Cavia porcellus, read-out: pD2 (negative logarithm of the dose which produces 50% of the maximum effect) (converted)
Procedure: Pieces of ileum are removed from guinea-pigs which have been killed by decapitation. The isolated ileum is placed in 10 cm^3 of Tyrode's solution at 37° C. and aerated by a mixture of oxygen (95%) and carbon dioxide (5%). The contractions due to the products are recorded using a sensor connected to a polygraph. The products being tested are added, in concentrations comprised between 1.10^-3 M and 1.10^-8 M/1.
The products presenting a contracting effect are tested vis-a-vis atropine and hexamethonium to establish if the activity is of "muscarinic" or "nicotinic" type.
The agonist activity is expressed in pD2 (negative logarithm of the dose which produces 50% of the maximum effect).

[3] = Diarrheic activity; design: species or system mice; details: mouse, in vivo
Procedure: The test is carried out on male mice (CD1 Charles Rivers) weighing 25 to 30 g, and without food for 6 hours. The product, dissolved at 5% in methocel, is administered by oral route, using an oesophagus probe.
Control animals receive only the excipient (20 ml/kg).
After treatment, the animals are put separately into cages, the bottom of which is covered with absorbent paper, and are observed for 30, 60, 120 and 180 minutes.
The absorbent sheets of paper are changed after each observation.
The consistency of the faeces is evaluated according to the Randall and Baruth method (Arch. Int. Pharmacodyn., 220, 94, 1976) in accordance with the following scale of values.
1: slightly soft faeces with or without a damp ring,
2: slightly soft faeces with presence of a well-defined damp ring,
3: soft faeces with presence of a large damp ring,
4: faeces without consistency with presence of a very large camp ring.
For each product, the dose has been noted which cause diarrohea in 50% of the animals according to the Miller and Tainter method (Proc. Soc. Exp. Biol. Med., 57, 261, 1944).

[4] = system: male mice (CD1 Charles Rivers); test: Hypothermic activity; assay type: in vivo; details: for ED (-1 C body temperature): Mus musculus, read-out: Effective dose (-1° C.)
Procedure: The test is carried out on male mice (CD1 Charles Rivers) weighing 25 to 30 g, and without food for 6 hours.
The body temperature is noted using a thermocouple placed in the rectum to about 1.5 cm and connected to an electrical temperature recorder. […]
The degree of hypothermia is evaluated as the difference between the treated animals and the control animals and the dose necessary to reduce the body temperature by 1° C. is determined.
The duration of action of the products is determined by using doses capable of reducing the temperature by 1° to 1.2° C.

[5] = isolated guinea-pig ileum, contraction, Tyrode's solution at 37° C.
[6] = sc, sub-cutaneous route, dose necessary to reduce body temperature by 1° C.
[7] = oral route, dose necessary to reduce body temperature by 1° C.

CCON=CC1CN2CCC1CC2 (stereo not shown) [Example 2, 1-azabicyclo-[2,2,2]-octan-3-carboxaldehyde O-ethyloxime]
LD50 at 168 h [1]: 150 mg/kg

CON=CC1CN2CCC1CC2 (stereo not shown) [Example 1, 1-azabicyclo-[2,2,2]-octan-3-carboxaldehyde O-methyloxime]
LD50 at 168 h [1]: 30 mg/kg
EC50 [2, 5]: 50.1 nM
ED50 at 3 h ([3]; po): 1.1 mg/kg
duration of action: body temperature difference from controls ([4]; 0.25 mg/kg oral, 30 min): -1.1 °C
duration of action: body temperature difference from controls ([4]; 0.25 mg/kg oral, 60 min): -1.0 °C
duration of action: body temperature difference from controls ([4]; 0.25 mg/kg sub-cutaneous, 30 min): -1.2 °C
duration of action: body temperature difference from controls ([4]; 0.25 mg/kg sub-cutaneous, 60 min): -1.1 °C
ED (-1 C body temperature) [4, 6]: 0.18 mg/kg
ED (-1 C body temperature) [4, 7]: 0.19 mg/kg

CC(=O)OC1CN2CCC1CC2 (stereo not shown) [Aceclidine, HCl]
LD50 at 168 h [1]: 250 mg/kg
EC50 [2]: 105 nM
ED50 at 3 h ([3]; male CD1 mice, fasted 6 hours, oral, observed up to 180 minutes, read-out: ED50 (dose which causes diarrhoea in 50% of the animals)): 4 mg/kg
duration of action: body temperature difference from controls ([4]; 2.50 mg/kg sub-cutaneous, 30 min): -1.0 °C
duration of action: body temperature difference from controls ([4]; 2.50 mg/kg sub-cutaneous, 60 min): -0.1 °C
duration of action: body temperature difference from controls ([4]; 2.50 mg/kg sub-cutaneous, 120 min): +0.1 °C
duration of action: body temperature difference from controls ([4]; 2.50 mg/kg sub-cutaneous, 180 min): +0.1 °C
duration of action: body temperature difference from controls ([4]; 7.50 mg/kg oral, 30 min): -1.1 °C
duration of action: body temperature difference from controls ([4]; 7.50 mg/kg oral, 60 min): -0.3 °C
duration of action: body temperature difference from controls ([4]; 7.50 mg/kg oral, 180 min): +0.1 °C
ED (-1 C body temperature) ([4]; po): 6.4 mg/kg
ED (-1 C body temperature) ([4]; sc): 2.1 mg/kg

CON=C(C)C1CN2CCC1CC2 (stereo not shown) [Example 4, (1-azabicyclo-[2,2,2]-octan-3-yl)-ethanone O-methyloxime hydrochloride]
LD50 at 168 h [1]: 75 mg/kg
EC50 [2, 5]: 95.5 nM
ED50 at 3 h ([3]; po): 3 mg/kg
ED (-1 C body temperature) [4, 6]: 0.33 mg/kg
ED (-1 C body temperature) [4, 7]: 0.33 mg/kg

C#CCON=CC1CN2CCC1CC2 (stereo not shown) [Example 3, 1-azabicyclo-[2,2,2]-octan-3-carboxaldehyde O-2-propynyloxime]
LD50 at 168 h [1]: 40 mg/kg
